Measurements from article PMC4503439, “Dose-Independent ADME Properties and Tentative Identification of Metabolites of α-Mangostin from Garcinia mangostana in Mice by Automated Microsampling and UPLC-MS/MS Methods” (PLoS ONE, 2015).
Where two headings read alike, the source gives them in different places.

What was measured:
[1] = Pharmacokinetics of α-MG after intravenous administration to mice (automated microsampling); type: in vivo; conditions: for CL renal / MRT / clearance / AUC / half-life / Vd: mouse, plasma; for half-life: read-out: Terminal half-life; for Vd: read-out: V ss
Method: (§1) The surgical procedures were conducted under intramuscular injection anesthesia with 125 mg (1.5 mL)/kg of tiletamine HCl and zolazepam HCl mixture. The carotid artery (for intravenous and oral studies) and the jugular vein (for intravenous study) were cannulated using CX-2052S and CX-2022S catheters (BASi, West Lafayette, IN), respectively. After the mice awoke from anesthesia, the administration of α-MG and blood sampling were performed, [12], [31].
In intravenous study, α-MG (dissolved in PEG 400: distilled water = 6:4, v/v) at doses of 5, 10 and 20 mg (5 mL)/kg was administered through the jugular vein. The micro-sampling system (Culex BASi, West Lafayette, IN) was programmed to collect a 10 μL sample of blood into a micro-vial containing 50 μL of 12.5 units/mL heparinized saline. Blood loss due to blood sampling was replaced with equal volumes of heparinized saline. Blood samples were collected at 0, 1, 5, 15, 30, 60, 90, 120, 180, 240, 300 and 360 min after intravenous administration of the α-MG with virtually no blood loss. After centrifugation of each micro-vial, 50 μL of supernatant was collected. At the end of 24 h, each metabolic cage was rinsed with 5 mL of distilled water and the resulting fluid combined with the urine collected over the previous 24 h. At this time, each mouse was sacrificed by cervical dislocation, and then the entire gastrointestinal tract (including its contents and feces) was removed, transferred into a beaker that contained 10 mL of methanol (to facilitate the extraction of α-MG) and the gastrointestinal tract was cut into small pieces. After manual shaking and stirring, a 50 μL aliquot of the supernatant was collected from each beaker and stored.
(§2) The analytical method for measuring α-MG was modified from a previous report. In sample preparation, 100 μL of acetonitrile containing 1 μg/mL IS was added to 50 μL of aliquot of the sample. After vortex-mixing and centrifugation (15000 × g for 10 min), 10 μL of the supernatant was directly injected into a reversed-phase C18 column (Cadenza CD-C18, 2 mm × 75 mm i.d., 3-μm particle size; Imtakt, USA) kept at 4°C until injection. The analytes were monitored using a API4000 triple quadrupole mass spectrometer (AB Sciex, Foster City, CA) equipped with a turbo ion-spray interface for electrospray ionization and operated in positive ion mode at 5500 V and 500°C at 50 L/min of nebulizing gas flow, 50 L/min of turbo ion-spray gas flow, 20 L/min of curtain gas flow, 5500 V of ring voltage and 5 Torr of collision gas (nitrogen) pressure.
(§3) Standard methods were used to calculate the following pharmacokinetic parameters using a non-compartmental analysis (WinNonlin 2.1; Pharmasight Corp., Mountain View, CA). The extent of absolute oral bioavailability (F) was calculated by dividing the AUCoral/AUCiv at the same dose. The peak plasma concentration (C max) and time to reach C max (T max) were read directly from the […] data.

P-glycoprotein = target: T1, P-glycoprotein (Homo sapiens, UniProt P08183); assay: P-glycoprotein substrate test in MDCK-mdr1 cell line; type: in vitro ADME; conditions: our unpublished data
T1 construct: expressed in transfected cells; host or cells: MDCK-mdr1 (canine kidney cells carrying an mdr1 transgene; transfection is inferred from the cell line name)

[2] = Pharmacokinetics of α-MG after oral administration to mice (automated microsampling); type: in vivo; conditions: for CL renal / Cmax / AUC / Tmax / half-life / Ae 0–24 h / GI 24 h: oral; for Tmax: median (ranges); for half-life: read-out: Terminal half-life
Method: as §1
α-MG (the same solution as used in the intravenous study) at doses of 10, 50 and 100 mg (10 mL)/kg was administered orally using a gastric gavage tube after overnight fasting with free access to water. A blood sample using the microsampling system was collected via the carotid artery at 0, 5, 15, 30, 60, 90, 120, 180, 240, 300 and 360 min after the oral administration of α-MG. Other procedures were similar to those in the intravenous study.
as §2, §3

[3] = Metabolism of α-MG in in vitro S9 fraction of small intestine; type: in vitro ADME, mice; conditions: 30 min incubation, NADPH and UDPGA
Description: (§4) The procedures for using S9 fractions from various tissues were similar those already reported. Each liver, stomach, small intestine, large intestine, lung, heart, kidney, fat, mesentery, muscle, and brain was excised after cervical dislocation (n = 6). Each tissue sample was rinsed with cold 0.9% NaCl-injectable solution, blotted dry with tissue paper and weighed. Then each tissue was homogenized with a volume of 0.25 M sucrose at 4 times of each tissue. Metabolic activity was initiated by adding a 100 μL aliquot of the 9000 × g supernatant fraction (S9) of each tissue to a 135 μL of Tris-buffer (pH 7.4), 5 μL of 0.9% NaCl-injectable solution with 1 or 20 μg/mL α-MG as a final concentration, 5 μL (1 mM) of NADPH and 5 μL (3.3 mM) of UDPGA. A 250 μL aliquot of acetonitrile (containing 1 μg/mL of the IS) was added after a 30 min incubation in a thermomixer (37°C and 500 opm) to terminate the enzyme activity. The amount of remaining α-MG in the S9 fraction of each tissue was determined using the HPLC-MS/MS analytical method.

[4] = Metabolism of α-MG in in vitro S9 fraction of liver; type: in vitro ADME, mice; conditions: 30 min incubation, NADPH and UDPGA
Description: as §4

[5] = intravenous, doses of 5, 10 and 20 mg/kg

T1 sequence (P08183 whole entry): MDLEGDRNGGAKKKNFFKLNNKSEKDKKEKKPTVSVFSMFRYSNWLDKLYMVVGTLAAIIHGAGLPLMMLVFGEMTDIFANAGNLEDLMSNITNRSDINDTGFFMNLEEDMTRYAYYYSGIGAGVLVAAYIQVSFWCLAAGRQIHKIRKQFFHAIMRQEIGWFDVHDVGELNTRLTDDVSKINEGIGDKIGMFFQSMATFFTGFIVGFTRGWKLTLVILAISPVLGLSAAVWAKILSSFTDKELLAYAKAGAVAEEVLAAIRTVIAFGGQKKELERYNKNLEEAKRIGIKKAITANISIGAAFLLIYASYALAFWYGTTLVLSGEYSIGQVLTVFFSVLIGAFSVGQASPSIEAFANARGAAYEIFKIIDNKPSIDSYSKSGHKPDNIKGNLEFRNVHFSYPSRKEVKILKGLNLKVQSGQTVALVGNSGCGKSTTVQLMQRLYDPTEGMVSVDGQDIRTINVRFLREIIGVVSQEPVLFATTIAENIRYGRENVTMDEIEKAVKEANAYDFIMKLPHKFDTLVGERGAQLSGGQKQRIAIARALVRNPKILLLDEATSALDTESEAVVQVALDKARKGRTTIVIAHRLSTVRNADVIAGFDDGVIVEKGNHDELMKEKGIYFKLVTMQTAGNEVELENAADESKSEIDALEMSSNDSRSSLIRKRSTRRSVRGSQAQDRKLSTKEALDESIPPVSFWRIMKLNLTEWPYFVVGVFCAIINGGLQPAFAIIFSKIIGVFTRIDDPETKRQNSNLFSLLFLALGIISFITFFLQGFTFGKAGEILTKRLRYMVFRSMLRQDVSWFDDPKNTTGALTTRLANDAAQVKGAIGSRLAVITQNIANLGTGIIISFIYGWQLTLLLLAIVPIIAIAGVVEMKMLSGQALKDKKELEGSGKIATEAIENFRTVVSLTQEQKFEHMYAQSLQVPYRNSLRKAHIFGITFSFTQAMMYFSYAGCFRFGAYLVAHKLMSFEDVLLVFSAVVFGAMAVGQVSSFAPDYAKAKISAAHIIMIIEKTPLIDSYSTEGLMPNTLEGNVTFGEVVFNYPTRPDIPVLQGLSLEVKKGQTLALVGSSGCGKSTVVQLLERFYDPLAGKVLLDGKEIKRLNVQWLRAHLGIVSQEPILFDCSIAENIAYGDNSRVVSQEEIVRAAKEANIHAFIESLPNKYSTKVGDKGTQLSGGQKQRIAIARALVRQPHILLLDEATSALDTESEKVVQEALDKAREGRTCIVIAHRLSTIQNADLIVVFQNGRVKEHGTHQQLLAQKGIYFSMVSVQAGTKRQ

Question: For `COc1c(O)cc2oc3cc(O)c(CC=C(C)C)c(O)c3c(=O)c2c1CC=C(C)C` [α-MG, α-Mangostin], which “CLR, fu (CLR based on free fraction in plasma)” value ([1]; estimated from CLR and unbound fraction) is on record?
Answer: 1.72 to 3.44 mL/min/kg

Question: And the “Ae 0–24 h (excreted in the urine as unchanged α-MG)” value ([1]; intravenous, 5 mg/kg)?
Answer: 0.839 ± 0.525 % of dose

Question: And the CLNR ([1]; intravenous, 5 mg/kg)?
Answer: 31.1 ± 7.14 mL/min/kg

Question: What about the “GI 24 h (remaining in the gastrointestinal tract at 24 h as unchanged α-MG)” value ([1]; intravenous, 5 mg/kg) of the same compound?
Answer: 3.44 ± 1.16 % of dose

Question: What about the “Ae 0–24 h (excreted in the urine as unchanged α-MG)” value ([1]; intravenous, 10 mg/kg) of the same compound?
Answer: 0.592 ± 0.394 % of dose

Question: And the CLNR ([1]; intravenous, 10 mg/kg)?
Answer: 31.1 ± 7.83 mL/min/kg

Question: What about the “GI 24 h (remaining in the gastrointestinal tract at 24 h as unchanged α-MG)” value ([1]; intravenous, 10 mg/kg) of the same compound?
Answer: 2.28 ± 1.96 % of dose

Question: And the “Ae 0–24 h (excreted in the urine as unchanged α-MG)” value ([1]; intravenous, 20 mg/kg)?
Answer: 0.403 ± 0.163 % of dose

Question: What about the CLNR ([1]; intravenous, 20 mg/kg) of the same compound?
Answer: 34.6 ± 12.3 mL/min/kg

Question: And the “GI 24 h (remaining in the gastrointestinal tract at 24 h as unchanged α-MG)” value ([1]; intravenous, 20 mg/kg)?
Answer: 3.42 ± 1.73 % of dose

Question: What about the “Ae 0–24 h” value [1, 5] of the same compound?
Answer: less than 0.839 % of the intravenous dose

Question: What about the “GI 24 h” value [1, 5] of the same compound?
Answer: less than 3.44 % of the doses

Question: What about the CL renal ([1]; intravenous, 5 mg/kg) of the same compound?
Answer: 0.283 ± 0.194 mL/min/kg

Question: And the MRT ([1]; intravenous, 5 mg/kg)?
Answer: 2.42 h

Question: And the clearance ([1]; intravenous, 5 mg/kg)?
Answer: 31.4 ± 7.28 mL/min/kg

Question: And the AUC ([1]; intravenous, 5 mg/kg (n = 9))?
Answer: 2820 ng·h/mL

Question: What about the half-life ([1]; intravenous, 5 mg/kg) of the same compound?
Answer: 3.77 ± 0.572 h

Question: And the Vd ([1]; intravenous, 5 mg/kg)?
Answer: 4.3 ± 1.01 L/kg

Question: What about the CL renal ([1]; intravenous, 10 mg/kg) of the same compound?
Answer: 0.205 ± 0.15 mL/min/kg

Question: What about the MRT ([1]; intravenous, 10 mg/kg) of the same compound?
Answer: 2.67 h

Question: And the clearance ([1]; intravenous, 10 mg/kg)?
Answer: 31.3 ± 7.95 mL/min/kg

Question: What about the AUC ([1]; intravenous, 10 mg/kg (n = 8)) of the same compound?
Answer: 5670 ng·h/mL

Question: And the half-life ([1]; intravenous, 10 mg/kg)?
Answer: 3.65 ± 1.23 h

Question: And the Vd ([1]; intravenous, 10 mg/kg)?
Answer: 4.27 ± 1.97 L/kg

Question: What about the CL renal ([1]; intravenous, 20 mg/kg) of the same compound?
Answer: 0.141 ± 0.0801 mL/min/kg

Question: What about the MRT ([1]; intravenous, 20 mg/kg) of the same compound?
Answer: 2.4 h

Question: What about the clearance ([1]; intravenous, 20 mg/kg) of the same compound?
Answer: 34.7 ± 12.4 mL/min/kg

Question: What about the AUC ([1]; intravenous, 20 mg/kg (n = 8)) of the same compound?
Answer: 10600 ng·h/mL

Question: What about the half-life ([1]; intravenous, 20 mg/kg) of the same compound?
Answer: 2.88 ± 1.2 h

Question: And the Vd ([1]; intravenous, 20 mg/kg)?
Answer: 4.5 ± 1.38 L/kg

Question: And the clearance ([1]; intravenous, range over doses (Table 1))?
Answer: 31.3 to 34.7 mL/min/kg

Question: What about the “substrate of P-glycoprotein” value (P-glycoprotein) of the same compound?
Answer: substrate of P-glycoprotein

Question: And the “first blood sampling time point at which detected in plasma” value ([2]; after oral administration)?
Answer: 5 min

Question: And the “F unabs ('true' fraction of the oral dose unabsorbed)” value ([2]; calculated by reported equation assuming linear pharmacokinetics)?
Answer: 0.434

Question: And the bioavailability ([2]; mouse, plasma, oral 10 mg/kg, AUCoral/AUCiv at the same dose, read-out: F (absolute oral bioavailability))?
Answer: 2.29%

Question: What about the CL renal ([2]; mouse, plasma, 10 mg/kg) of the same compound?
Answer: 0.535 ± 0.309 mL/min/kg

Question: What about the Cmax ([2]; mouse, plasma, 10 mg/kg) of the same compound?
Answer: 40.3 ± 30.7 ng/mL

Question: What about the AUC ([2]; mouse, plasma, 10 mg/kg (n = 8)) of the same compound?
Answer: 130 ng·h/mL

Question: And the Tmax ([2]; mouse, plasma, 10 mg/kg)?
Answer: 1 h

Question: And the half-life ([2]; mouse, plasma, 10 mg/kg)?
Answer: 2.95 ± 1.18 h

Question: What about the CL renal ([2]; mouse, plasma, 50 mg/kg) of the same compound?
Answer: 0.547 ± 0.309 mL/min/kg

Question: And the Cmax ([2]; mouse, plasma, 50 mg/kg)?
Answer: 242 ± 35 ng/mL

Question: What about the AUC ([2]; mouse, plasma, 50 mg/kg (n = 7)) of the same compound?
Answer: 622 ng·h/mL

Question: And the Tmax ([2]; mouse, plasma, 50 mg/kg)?
Answer: 0.5 h

Question: What about the half-life ([2]; mouse, plasma, 50 mg/kg) of the same compound?
Answer: 3.28 ± 1.35 h

Question: And the CL renal ([2]; mouse, plasma, 100 mg/kg)?
Answer: 0.418 ± 0.229 mL/min/kg

Question: What about the Cmax ([2]; mouse, plasma, 100 mg/kg) of the same compound?
Answer: 709 ± 397 ng/mL

Question: And the AUC ([2]; mouse, plasma, 100 mg/kg (n = 9))?
Answer: 1390 ng·h/mL

Question: What about the Tmax ([2]; mouse, plasma, 100 mg/kg) of the same compound?
Answer: 1 h

Question: And the half-life ([2]; mouse, plasma, 100 mg/kg)?
Answer: 2.52 ± 0.822 h

Question: What about the “Ae 0–24 h” value ([2]; 10 mg/kg) of the same compound?
Answer: 0.0255 ± 0.0107 % of dose

Question: What about the “GI 24 h” value ([2]; 10 mg/kg) of the same compound?
Answer: 43.5 ± 10.6 % of dose

Question: And the “Ae 0–24 h” value ([2]; 50 mg/kg)?
Answer: 0.0315 ± 0.0241 % of dose

Question: What about the “GI 24 h” value ([2]; 50 mg/kg) of the same compound?
Answer: 40.2 ± 11.6 % of dose

Question: And the “Ae 0–24 h” value ([2]; 100 mg/kg)?
Answer: 0.0270 ± 0.0113 % of dose

Question: And the “GI 24 h” value ([2]; 100 mg/kg)?
Answer: 41.2 ± 4.51 % of dose

Question: And the “disappearance of spiked α-MG” value ([3]; small intestine S9, 1 μg/mL)?
Answer: 34.8%

Question: And the “disappearance of spiked α-MG” value ([3]; small intestine S9, 20 μg/mL)?
Answer: 36.2%

Question: And the “disappearance of spiked α-MG” value ([4]; liver S9, 1 μg/mL)?
Answer: 57.3%

Question: What about the “disappearance of spiked α-MG” value ([4]; liver S9, 20 μg/mL) of the same compound?
Answer: 51.4%
